Where two headings read alike, the source gives them in different places. *1 amine or outer side, *2 acyl side, *3 side chain or, on linkers, in order; H or OH if unused. Where a SMILES comes first, the peptide text is derived from it. Bridges are numbered along the chain shown (N, C = ends). [ ]: non-standard residue; d: D form. 2Nal = N[C@@H](Cc1ccc2ccccc2c1)C(=O)O; AEF = NCCOc1ccc(C[C@H](N)C(=O)O)cc1; X1 = O=C(Cc1ccc(CN[*:1])cc1)[*:2]; 3Pal = N[C@@H](Cc1cccnc1)C(=O)O; αMeL = CC(C)C[C@](C)(N)C(=O)O; CH2COCH2 = O=C(C[*:1])C[*:2]; 3Amb = NCc1cccc(C(=O)O)c1; Dab = NCC[C@H](N)C(=O)O
Legend:
[1] = Peptide stability in simulated gastric fluid (SGF); format: in vitro ADME; details: for remaining at 1 h, 10 µM / remaining at 4 h, 10 µM: pig
How it was run: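 Peptide incubated at 37 °C with gentle shaking in SGF (NaCl, pH 1.2). Samples centrifuged, diluted and analysed by LC-HRMS; percent remaining at each timepoint from absolute peak areas relative to time zero, with 4 h as the reference point.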

[2] = Peptide stability in simulated intestinal fluid (SIF); format: in vitro ADME; details: 37 °C, porcine pancreatin; for remaining at 1 h, 10 µM / remaining at 4 h, 10 µM: pig; for remaining at 1 h, 10 µM: pH 6.8, 1 h
How it was run: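 Peptides were incubated at 37 °C with gentle shaking in pH 6.8 potassium phosphate SIF containing porcine pancreatin (10 g/L). Supernatants were analysed by LC-HRMS. Percent remaining at each timepoint, including 4 h, was calculated relative to time zero from absolute peak areas.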

[3] = target: T1, human IL-23R (Homo sapiens, UniProt Q5VWK5); experiment: biochemical
T1 sequence (Q5VWK5 22-629): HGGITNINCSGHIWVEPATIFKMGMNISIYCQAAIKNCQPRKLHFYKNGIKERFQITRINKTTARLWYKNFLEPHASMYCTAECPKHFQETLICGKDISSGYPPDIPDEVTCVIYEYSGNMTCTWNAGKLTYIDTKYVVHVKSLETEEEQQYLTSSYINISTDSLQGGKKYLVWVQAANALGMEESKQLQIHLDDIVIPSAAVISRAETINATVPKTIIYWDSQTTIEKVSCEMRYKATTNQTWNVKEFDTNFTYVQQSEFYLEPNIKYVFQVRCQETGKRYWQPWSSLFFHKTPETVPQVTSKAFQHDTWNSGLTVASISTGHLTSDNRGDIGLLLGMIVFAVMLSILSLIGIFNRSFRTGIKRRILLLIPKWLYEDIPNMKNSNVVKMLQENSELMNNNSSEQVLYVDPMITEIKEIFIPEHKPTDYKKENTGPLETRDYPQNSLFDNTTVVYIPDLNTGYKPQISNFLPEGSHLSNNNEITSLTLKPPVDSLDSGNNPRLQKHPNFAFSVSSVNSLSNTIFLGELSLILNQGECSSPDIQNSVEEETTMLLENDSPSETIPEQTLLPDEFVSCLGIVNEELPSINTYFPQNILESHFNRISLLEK
How it was run: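 BRET displacement of a TAMRA-labelled reference compound from N-terminal Nanoluc-IL-23R fusion protein in membranes from stably transfected HEK293 cells. Incubation 2 h at room temperature, then Nanoluc substrate was added and the TAMRA/Nanoluc ratio read. IC50 and maximal displacement came from 4-parameter logistic fits.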

[4] = target: IL-23 mediated signalling (Homo sapiens, UniProt Q5VWK5); experiment: Functional inhibition of IL-23 mediated STAT3 signalling (phospho-STAT3 MSD) in DB cells; format: cell-based; details: for Emax: maximal inhibitory response, read-out: hIL-23 (pSTAT3) antagonist % inhibition
How it was run: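 DB cells preincubated with inhibitor 15 min at 37 °C, then stimulated 90 min with EC80 human IL-23; lysate phospho-STAT3 measured by MSD electrochemiluminescence. Signal normalized to IL-23-alone and buffer controls; IC50 and maximal % inhibition from 4-parameter logistic fit.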

[5] = simulated gastric fluid (SGF) with porcine pepsin (3.2 g/L), pH 1.2, 10 µM, 37 °C, porcine pepsin, pH 1.2, 1 h, read-out: SGF (% remaining 1 h)
[6] = SAR tables, % peptide remaining, pH 6.8, 4 h, read-out: SIF (% after 4 h)
[7] = Table 3-2, DB cells, hIL-23 at EC80
[8] = simulated gastric fluid (SGF) with porcine pepsin (3.2 g/L), pH 1.2, 10 µM, 37 °C, porcine pepsin, pH 1.2, 4 h, read-out: SGF (% remaining 4 h)
[9] = pH 6.8, 4 h, read-out: SIF (% remaining 4 h)
[10] = Table 3-2, DB cells, hIL-23 at EC80, read-out: hIL-23 (pSTAT3) antagonist IC50

Compound	SGF (% after 4 h) ([1]; SAR tables, % peptide remaining, 10 µM, 37 °C, porcine pepsin, pH 1.2, 4 h) [%]	remaining at 1 h, 10 µM [1, 5] [%]	remaining at 4 h, 10 µM ([1]; simulated gastric fluid (SGF) with porcine pepsin (3.2 g/L), pH 1.2, SAR tables, % peptide remaining, 10 µM, 37 °C, porcine pepsin, pH 1.2, 4 h, read-out: SGF (% after 4 h)) [%]	SIF (% remaining 4 h) ([2]; 10 µM, pH 6.8, 4 h) [%]	SIF (% after 4 h) ([2]; SAR tables, % peptide remaining, 10 µM, pH 6.8, 4 h) [%]	remaining at 1 h, 10 µM [2] [%]	remaining at 4 h, 10 µM [2, 6] [%]	% displacement (hIL-23R NIuc) [3] [%]	IC50 [3] [nM]	Emax [4, 7] [%]	remaining at 4 h, 10 µM [1, 8] [%]	Emax ([3]; read-out: % displacement (hIL-23R NIuc)) [%]	IC50 ([4]; SAR tables 2-1 to 2-7, DB cells, hIL-23 at EC80, read-out: IC50 (pSTAT3)) [nM]	remaining at 4 h, 10 µM [2, 9] [%]	Ki [3] [nM]	IC50 [4, 10] [nM]	remaining at 1 h, 10 µM ([1]; simulated gastric fluid, pH 1.2, SGF (% remaining 1 h)) [%]	remaining at 4 h, 10 µM ([1]; simulated gastric fluid, pH 1.2, SGF (% remaining 4 h)) [%]	IC50 [4] [nM]
CC[C@H](C)[C@@H]1NC(=O)[C@@H]2CCCCNC(=O)CC[C@@H](C(=O)N[C@@H](CCN)C(=O)N[C@@H](Cc3cccnc3)C(=O)NC)NC(=O)[C@](C)(CC(C)C)NC(=O)[C@H](Cc3ccc4ccccc4c3)NC(=O)[C@H](Cc3ccc(OCCN)cc3)NC(=O)[C@H](CCC(=O)N2)NC(=O)[C@H](CCC(N)=O)NC(=O)[C@H](Cc2c[nH]c3ccccc23)NC(=O)[C@H](C(C)C)NC1=O [Compound 60, K(1c)(6c)^†IVWQE(6c)[Y(2-aminoethoxy)][2-Nal][2-Me-Leu]E(1c)[Dab][3-(3-Pyridyl)-Ala]-[NHMe]]	109	120	109	71	71	76	71	95	0.049	101									
CNC(=O)[C@H](Cc1cccnc1)NC(=O)[C@H](CCN)NC(=O)[C@@H]1CCC(=O)NCCCC[C@H]2CC(=O)NCC(=O)N[C@@H](Cc3c[nH]c4ccccc34)C(=O)N[C@@H](CCC(N)=O)C(=O)N[C@@H](CCC(=O)N2)C(=O)N[C@@H](Cc2ccc(OCCN)cc2)C(=O)N[C@@H](Cc2ccc3ccccc3c2)C(=O)N[C@@](C)(CC(C)C)C(=O)N1 [Compound 99, [beta-hLys](1c)(6c)^†GWQE(6c)[Y(2-aminoethoxy)][2-Nal][2-Me-Leu]E(1c)[Dab][3-(3-Pyridyl)-Ala]-[NHMe]]		104		42		74	42		0.024	100	101	101	0.014						
CC(C)C[C@@H]1NC(=O)[C@H](Cc2c[nH]c3ccccc23)NC(=O)[C@H](Cc2c[nH]c3ccccc23)NC(=O)[C@@H]2CSCC(=O)CSC[C@H](NC(=O)[C@H](CO)NC(=O)[C@@H](NC(=O)[C@@H](N)CC(=O)O)CCC(=O)NCCCC[C@@H](C(=O)N[C@@H](CCCNC(=N)N)C(N)=O)NC1=O)C(=O)N[C@@H](Cc1c[nH]c3ccccc13)C(=O)N[C@@H](CCC(N)=O)C(=O)N2 [Ref 4, H-DE(1c)SC(2a)WQC(2a)WWLK(1c)R-[NH2], reference compound] (HELM PEPTIDE1{D.E.S.C.W.Q.C.W.W.L.K.R.[am]}|CHEM1{[O=C(C[*:1])C[*:2]]}$PEPTIDE1,PEPTIDE1,2:R3-11:R3|PEPTIDE1,CHEM1,4:R3-1:R1|PEPTIDE1,CHEM1,7:R3-1:R2$$$V2.0)		1				0		100	180	87	0			0	143	850			
CC(C)C[C@]1(C)NC(=O)[C@H](Cc2ccc3ccccc3c2)NC(=O)[C@H](Cc2ccc(OCCN)cc2)NC(=O)[C@@H]2CSCC(=O)CSC[C@H](NC(=O)[C@H](CO)NC(=O)Cc3ccc(cc3)CNC(=O)CC[C@@H](C(=O)N[C@@H](CCN)C(=O)N[C@@H](Cc3cccnc3)C(N)=O)NC1=O)C(=O)N[C@@H](Cc1c[nH]c3ccccc13)C(=O)N[C@@H](CCC(N)=O)C(=O)N2 [Ref 120, [4-Aminomethyl-phenylacetyl](1c)*SC(2a)WQC(2a)[Y(2-aminoethoxy)][2-Nal][2-Me-Leu]E(1c)[Dab][3-(3-Pyridyl)-Ala]-[NH2], reference compound] ([X1]SCWQC[AEF][2Nal][αMeL]E[Dab][3Pal]-NH2; linker 3-6 via CH2COCH2; lactam N-10)						82		94	0.011	101				39	0.00938		84	81	0.054
CC(C)C[C@]1(C)NC(=O)[C@H](Cc2ccc3ccccc3c2)NC(=O)[C@H](Cc2ccc(OCCN)cc2)NC(=O)[C@@H]2CCNC(=O)CC[C@H](NC(=O)[C@H](CO)NC(=O)Cc3ccc(cc3)CNC(=O)CC[C@@H](C(=O)N[C@@H](CCN)C(=O)N[C@@H](Cc3cccnc3)C(N)=O)NC1=O)C(=O)N[C@@H](Cc1c[nH]c3ccccc13)C(=O)N[C@@H](CCC(N)=O)C(=O)N2 [Ref 122, [4-Aminomethyl-phenylacetyl](1c)*SE(2c)WQ[Dab](2c)[Y(2-aminoethoxy)][2-Nal][2-Me-Leu]E(1 c)[Dab][3-(3-Pyridyl)-Ala]-[NH2], reference compound]		92				73		97	0.0066	99	90			25	0.00541				0.028

The next lines start with results.

SGF (% after 4 h) ([1]; SAR tables, % peptide remaining, 10 µM, 37 °C, porcine pepsin, pH 1.2, 4 h) [%]	remaining at 1 h, 10 µM [1, 5] [%]	remaining at 4 h, 10 µM ([1]; simulated gastric fluid (SGF) with porcine pepsin (3.2 g/L), pH 1.2, SAR tables, % peptide remaining, 10 µM, 37 °C, porcine pepsin, pH 1.2, 4 h, read-out: SGF (% after 4 h)) [%]	SIF (% remaining 4 h) ([2]; 10 µM, pH 6.8, 4 h) [%]	SIF (% after 4 h) ([2]; SAR tables, % peptide remaining, 10 µM, pH 6.8, 4 h) [%]	remaining at 1 h, 10 µM [2] [%]	remaining at 4 h, 10 µM [2, 6] [%]	% displacement (hIL-23R NIuc) [3] [%]	IC50 [3] [nM]	Emax [4, 7] [%]	remaining at 4 h, 10 µM [1, 8] [%]	Emax ([3]; read-out: % displacement (hIL-23R NIuc)) [%]	IC50 ([4]; SAR tables 2-1 to 2-7, DB cells, hIL-23 at EC80, read-out: IC50 (pSTAT3)) [nM]	remaining at 4 h, 10 µM [2, 9] [%]	Ki [3] [nM]	IC50 [4, 10] [nM]	Compound	remaining at 1 h, 10 µM ([1]; simulated gastric fluid, pH 1.2, SGF (% remaining 1 h)) [%]	remaining at 4 h, 10 µM ([1]; simulated gastric fluid, pH 1.2, SGF (% remaining 4 h)) [%]	IC50 [4] [nM]
	0				0			87		0			0	70.7	370	CC(=O)N[C@@H](CC(=O)O)C(=O)N[C@H]1CCC(=O)NCCCC[C@@H](C(=O)N[C@@H](CCCNC(=N)N)C(N)=O)NC(=O)[C@H](CC(C)C)NC(=O)[C@H](Cc2ccc3ccccc3c2)NC(=O)[C@H](Cc2c[nH]c3ccccc23)NC(=O)[C@@H]2CSCC(=O)CSC[C@H](NC(=O)[C@H](CO)NC1=O)C(=O)N[C@@H](Cc1c[nH]c3ccccc13)C(=O)N[C@@H](CCC(N)=O)C(=O)N2 [Ref 17, [Ac]-DE(1c)SC(2a)WQC(2a)W[2-Nal]LK(1c)R-[NH2], reference compound]			
	2				0		103	12	89	1			0	9.87	45	CC(C)C[C@@H]1NC(=O)[C@H](Cc2ccc3ccccc3c2)NC(=O)[C@H](Cc2c[nH]c3ccccc23)NC(=O)[C@@H]2CSCC(=O)CSC[C@H](NC(=O)[C@H](CO)NC(=O)c3cccc(c3)CNC(=O)CC[C@@H](C(=O)N[C@@H](CCCNC(=N)N)C(N)=O)NC1=O)C(=O)N[C@@H](Cc1c[nH]c3ccccc13)C(=O)N[C@@H](CCC(N)=O)C(=O)N2 [Ref 37, [(3-Aminomethyl)benzoyl](1c)*SC(2a)WQC(2a)W[2-Nal]LE(1c)R-[NH2], reference compound] ([3Amb]SCWQCW[2Nal]LER-NH2; linker 3-6 via CH2COCH2; lactam N-10)			
	93				83		110	2.8	99	87			79	2.31	29	CC(C)C[C@]1(C)NC(=O)[C@H](Cc2ccc3ccccc3c2)NC(=O)[C@H](Cc2ccc(OCCN)cc2)NC(=O)[C@@H]2CSCC(=O)CSC[C@H](NC(=O)[C@H](CO)NC(=O)c3cccc(c3)CNC(=O)CC[C@@H](C(=O)N[C@H](CCCNC(=N)N)C(N)=O)NC1=O)C(=O)N[C@@H](Cc1c[nH]c3ccccc13)C(=O)N[C@@H](CCC(N)=O)C(=O)N2 [Ref 41, [(3-Aminomethyl)benzoyl](1c)*SC(2a)WQC(2a)[Y(2-aminoethoxy)][2-Nal][2-Me-Leu]E(1c)[{d}R]-[NH2], reference compound] ([3Amb]SCWQC[AEF][2Nal][αMeL]E[dR]-NH2; linker 3-6 via CH2COCH2; lactam N-10)			

Reference: patent EP4471048A1, “PEPTIDE INHIBITORS OF INTERLEUKIN-23 RECEPTOR” (Zealand Pharma A/S, priority 2023, dated 2024)
